Laboratory results: US12448369B2 (Edgewise Therapeutics, Inc., priority 2023, dated 2025)

Test system: Rabbit Psoas myofibrils (skeletal myosin ATPase)
Test: Myofibril ATPase assay, rabbit psoas (skeletal) myofibrils
Assay type: biochemical
Conditions: Y75 value (no ‡ mark); rabbit psoas myofibrils
Procedure, shortened: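 Rabbit psoas skeletal myofibrils in PIPES/CaCl2/EGTA pCa buffer, pH 7.0. ATPase rate followed by PK-LDH-coupled NADH loss at 340 nm, read every 1.5–2 min for 75 min. Slopes normalized to vehicle (100%) and fitted to a 4-parameter logistic; values are Y75 (25% inhibition) or Y125 (25% activation) concentrations.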

Row | Structure (SMILES) | Skeletal EC25 [µM]
1 | Cc1nc(C#N)cnc1[C@@H](C)NC(=O)C1(c2cc3c(F)c(F)ccc3[nH]c2=O)CC1 (single isomer, unassigned) [compound 4825] | 100.00

Same assay, conditions: rabbit psoas myofibrils; Y75 value

Row | Structure (SMILES) | Skeletal EC25 [µM]
2 | Cc1ccccc1[C@H](C)NC(=O)Cc1c(C)c2c(C)nccc2[nH]c1=O (single isomer, unassigned) [compound 327] | 0.67
3 | Cc1nccc2[nH]c(=O)c(CC(=O)N[C@H](C)c3ccncc3)c(C)c12 (single isomer, unassigned) [compound 333] | 100.00
4 | Cc1nccc2[nH]c(=O)c(CC(=O)N[C@H](C)c3ccc(O)cc3)c(C)c12 (single isomer, unassigned) [compound 328] | 100.00
5 | Cc1c(CC(=O)N[C@H](C)c2ncc(F)cc2F)c(=O)[nH]c2ccnc(C(F)(F)F)c12 (single isomer, unassigned) [compound 265] | 3.86
6 | Cc1nccc2[nH]c(=O)c(CC(=O)N[C@H](C)c3ccccc3O)c(C)c12 (single isomer, unassigned) [compound 320] | 34.09
7 | Cc1nccc2[nH]c(=O)c([C@H](C)C(=O)N[C@@H](C)c3ccc(C#N)cc3F)c(C)c12 (single isomer, unassigned) [compound 196] | 0.18
8 | Cc1c(CC(=O)N[C@@H](CO)c2ccc(F)cc2F)c(=O)[nH]c2ccc(C#N)nc12 [compound 211] | 22.09
9 | Cc1c(CC(=O)N[C@H](CO)c2ncc(F)cc2F)c(=O)[nH]c2ccc(C#N)nc12 [compound 259] | 100.00
10 | C[C@H](NC(=O)[C@H](C)c1c(C(F)(F)F)c2cnccc2[nH]c1=O)c1ccc(F)cc1F (single isomer, unassigned) [compound 427] | 2.02
11 | Cc1c(CC(=O)N[C@@H](C)c2ccc(F)cc2F)c(=O)[nH]c2ccc(OCC(F)(F)F)nc12 [compound 400] | 0.36
12 | Cc1c(CC(=O)N[C@H](C)c2ccc(C#N)cn2)c(=O)[nH]c2ccnc(C#N)c12 [compound 157] | 0.62
13 | C[C@H](NC(=O)[C@@H](C)c1c(C(F)(F)F)c2cnccc2[nH]c1=O)c1ccc(F)cc1F (single isomer, unassigned) [compound 426] | 12.74
14 | Cc1nccc2[nH]c(=O)c(CC(=O)Nc3c[nH]c4cc(F)cc(F)c34)c(C)c12 [compound 228] | 100.00
15 | C[C@H](NC(=O)[C@H](C)c1cc2nc(C#N)ccc2[nH]c1=O)c1ccc(F)cc1F (single isomer, unassigned) [compound 257] | 100.00
16 | C[C@H](NC(=O)Cc1c(C2CC2)c2cnccc2[nH]c1=O)c1ccc(C#N)cn1 [compound 141] | 8.74

Same assay, conditions: ‡ Y125 value, not a Y75 value (125% activity relative to no compound); rabbit psoas myofibrils

Row | Structure (SMILES) | Skeletal EC25
17 | Cc1c(C2(C(=O)N[C@H](C)c3ncc(C#N)cc3F)CC2)c(=O)[nH]c2ccc(F)c(C#N)c12 (single isomer, unassigned) [compound 2523] | 100.00‡ μM
18 | Cc1c(C2(C(=O)N[C@@H](C)c3cc(C#N)ccn3)CC2)c(=O)[nH]c2ccc(F)cc12 (single isomer, unassigned) [compound 2578] | 100.00‡ μM
19 | C[C@H](NC(=O)C1(c2cc3c(F)c(F)ccc3[nH]c2=O)CC1)c1cc(C#N)ccn1 (single isomer, unassigned) [compound 2584] | 100.00‡ μM

Test system: Porcine atria myofibrils (atrial myosin ATPase)
Test: Myofibril ATPase assay, porcine atria myofibrils
Assay type: biochemical
Conditions: Y75 value (no ‡ mark); porcine atria myofibrils
Procedure, shortened: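 Coupled PK-LDH reaction links ADP from myosin ATPase to NADH loss, read at 340 nm every 1.5-2 min for 75 min. Slopes (mAU/min) normalized to vehicle-only wells (100%) and fit to a 4-parameter logistic; Y75 is the concentration cutting activity by 25%, Y125 is reported for activators.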

Row | Structure (SMILES) | Atrial EC25 [µM]
20 | Cc1c(C2(C(=O)N[C@H](C)c3ncc(C#N)cc3F)CC2)c(=O)[nH]c2ccc(F)c(C#N)c12 (single isomer, unassigned) [compound 2523] | 0.19
21 | C[C@H](NC(=O)C1(c2cc3c(F)c(F)ccc3[nH]c2=O)CC1)c1cc(C#N)ccn1 (single isomer, unassigned) [compound 2584] | 100.00
22 | Cc1nc(C#N)cnc1[C@@H](C)NC(=O)C1(c2cc3c(F)c(F)ccc3[nH]c2=O)CC1 (single isomer, unassigned) [compound 4825] | 0.43

Same assay, conditions: porcine atria myofibrils; Y75 value (75% activity relative to no compound)

Row | Structure (SMILES) | Atrial EC25 [µM]
23 | Cc1ccccc1[C@H](C)NC(=O)Cc1c(C)c2c(C)nccc2[nH]c1=O (single isomer, unassigned) [compound 327] | 3.29
24 | Cc1nccc2[nH]c(=O)c(CC(=O)N[C@H](C)c3ccncc3)c(C)c12 (single isomer, unassigned) [compound 333] | 100.00
25 | Cc1nccc2[nH]c(=O)c(CC(=O)N[C@H](C)c3ccc(O)cc3)c(C)c12 (single isomer, unassigned) [compound 328] | 100.00
26 | Cc1c(CC(=O)N[C@H](C)c2ncc(F)cc2F)c(=O)[nH]c2ccnc(C(F)(F)F)c12 (single isomer, unassigned) [compound 265] | 100.00
27 | Cc1nccc2[nH]c(=O)c(CC(=O)N[C@H](C)c3ccccc3O)c(C)c12 (single isomer, unassigned) [compound 320] | 100.00
28 | Cc1nccc2[nH]c(=O)c([C@H](C)C(=O)N[C@@H](C)c3ccc(C#N)cc3F)c(C)c12 (single isomer, unassigned) [compound 196] | 0.11
29 | Cc1c(CC(=O)N[C@@H](CO)c2ccc(F)cc2F)c(=O)[nH]c2ccc(C#N)nc12 [compound 211] | 7.02
30 | Cc1c(CC(=O)N[C@H](CO)c2ncc(F)cc2F)c(=O)[nH]c2ccc(C#N)nc12 [compound 259] | 100.00
31 | C[C@H](NC(=O)[C@H](C)c1c(C(F)(F)F)c2cnccc2[nH]c1=O)c1ccc(F)cc1F (single isomer, unassigned) [compound 427] | 2.53
32 | Cc1c(CC(=O)N[C@@H](C)c2ccc(F)cc2F)c(=O)[nH]c2ccc(OCC(F)(F)F)nc12 [compound 400] | 1.55
33 | Cc1c(CC(=O)N[C@H](C)c2ccc(C#N)cn2)c(=O)[nH]c2ccnc(C#N)c12 [compound 157] | 13.10
34 | C[C@H](NC(=O)[C@@H](C)c1c(C(F)(F)F)c2cnccc2[nH]c1=O)c1ccc(F)cc1F (single isomer, unassigned) [compound 426] | 4.84
35 | Cc1nccc2[nH]c(=O)c(CC(=O)Nc3c[nH]c4cc(F)cc(F)c34)c(C)c12 [compound 228] | 100.00
36 | C[C@H](NC(=O)[C@H](C)c1cc2nc(C#N)ccc2[nH]c1=O)c1ccc(F)cc1F (single isomer, unassigned) [compound 257] | 100.00
37 | C[C@H](NC(=O)Cc1c(C2CC2)c2cnccc2[nH]c1=O)c1ccc(C#N)cn1 [compound 141] | 100.00

Same assay, conditions: ‡ Y125 value, not a Y75 value (125% activity relative to no compound); porcine atria myofibrils

Row | Structure (SMILES) | Atrial EC25
38 | Cc1c(C2(C(=O)N[C@@H](C)c3cc(C#N)ccn3)CC2)c(=O)[nH]c2ccc(F)cc12 (single isomer, unassigned) [compound 2578] | 100.00‡ μM

Molecular target: T1, Porcine ventricle myofibrils (ventricular myosin ATPase) (Sus scrofa, UniProt P79293)
T1 construct: Myofibrils from porcine cardiac muscle was isolated from the left ventricle of Yucatan minipigs; tissue Exemplar Genetics; host or cells: left ventricle of Yucatan minipigs, myofibrils prepared in house
T1 sequence (P79293 whole entry): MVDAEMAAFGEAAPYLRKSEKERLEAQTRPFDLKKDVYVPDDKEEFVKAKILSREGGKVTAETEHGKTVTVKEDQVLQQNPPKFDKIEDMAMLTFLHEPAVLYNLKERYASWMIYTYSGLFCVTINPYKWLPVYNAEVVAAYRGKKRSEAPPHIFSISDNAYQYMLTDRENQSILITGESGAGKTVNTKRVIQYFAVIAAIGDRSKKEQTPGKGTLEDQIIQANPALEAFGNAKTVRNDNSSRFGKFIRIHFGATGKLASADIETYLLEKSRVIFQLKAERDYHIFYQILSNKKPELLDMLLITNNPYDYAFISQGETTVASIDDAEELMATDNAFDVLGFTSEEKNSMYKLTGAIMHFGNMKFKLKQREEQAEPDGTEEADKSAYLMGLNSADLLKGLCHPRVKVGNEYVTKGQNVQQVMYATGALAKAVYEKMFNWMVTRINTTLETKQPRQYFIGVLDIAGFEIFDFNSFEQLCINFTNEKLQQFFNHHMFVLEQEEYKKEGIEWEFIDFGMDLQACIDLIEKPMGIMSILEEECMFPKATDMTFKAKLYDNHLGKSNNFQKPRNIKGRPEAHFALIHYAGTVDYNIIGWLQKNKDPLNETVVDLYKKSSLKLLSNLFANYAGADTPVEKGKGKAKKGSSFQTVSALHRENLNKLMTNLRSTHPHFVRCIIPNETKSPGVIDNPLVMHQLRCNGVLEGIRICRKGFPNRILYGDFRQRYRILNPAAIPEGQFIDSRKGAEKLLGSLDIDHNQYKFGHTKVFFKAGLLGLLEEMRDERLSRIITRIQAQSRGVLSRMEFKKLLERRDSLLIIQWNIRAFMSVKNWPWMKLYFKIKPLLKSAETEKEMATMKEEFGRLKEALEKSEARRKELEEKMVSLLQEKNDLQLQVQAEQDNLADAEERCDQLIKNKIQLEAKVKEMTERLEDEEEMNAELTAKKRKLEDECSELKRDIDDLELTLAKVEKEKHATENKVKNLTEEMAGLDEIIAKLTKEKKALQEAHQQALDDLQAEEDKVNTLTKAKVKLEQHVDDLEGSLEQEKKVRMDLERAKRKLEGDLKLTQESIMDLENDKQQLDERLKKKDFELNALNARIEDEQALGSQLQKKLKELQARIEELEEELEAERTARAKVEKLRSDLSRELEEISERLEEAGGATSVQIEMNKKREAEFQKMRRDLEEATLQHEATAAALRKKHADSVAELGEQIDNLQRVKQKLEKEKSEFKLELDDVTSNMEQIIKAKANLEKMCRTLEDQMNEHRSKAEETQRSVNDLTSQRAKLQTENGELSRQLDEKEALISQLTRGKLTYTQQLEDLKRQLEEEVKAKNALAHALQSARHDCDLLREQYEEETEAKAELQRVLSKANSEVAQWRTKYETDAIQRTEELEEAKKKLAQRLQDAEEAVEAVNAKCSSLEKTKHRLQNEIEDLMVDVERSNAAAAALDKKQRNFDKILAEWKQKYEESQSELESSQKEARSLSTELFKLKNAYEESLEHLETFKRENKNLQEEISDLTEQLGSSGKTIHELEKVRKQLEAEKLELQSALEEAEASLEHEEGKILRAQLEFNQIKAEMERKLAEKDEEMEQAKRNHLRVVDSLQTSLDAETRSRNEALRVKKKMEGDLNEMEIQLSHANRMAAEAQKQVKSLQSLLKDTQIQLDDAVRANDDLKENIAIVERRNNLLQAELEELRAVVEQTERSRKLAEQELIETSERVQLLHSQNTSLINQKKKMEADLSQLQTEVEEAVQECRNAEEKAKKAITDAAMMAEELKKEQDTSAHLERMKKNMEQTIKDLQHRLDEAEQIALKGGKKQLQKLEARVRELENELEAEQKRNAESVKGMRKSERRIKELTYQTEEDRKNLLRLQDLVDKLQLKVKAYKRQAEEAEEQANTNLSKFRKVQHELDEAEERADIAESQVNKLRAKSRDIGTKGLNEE
Test: Myofibril ATPase assay, porcine ventricle myofibrils
Assay type: biochemical, porcine (Yucatan minipigs)
Conditions: Y75 value (no ‡ mark); porcine ventricle myofibrils
Procedure, shortened: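 Left-ventricle myofibrils from Yucatan minipigs were tested with a PK/LDH-coupled system, following NADH loss at 340 nm every 1.5-2 min for 75 min. Slopes were normalized to vehicle wells and fit to a 4-parameter logistic model; values are Y75 (25% ATPase reduction) or Y125 concentrations.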

Row | Structure (SMILES) | Ventricular EC25 [µM]
39 | Cc1c(C2(C(=O)N[C@H](C)c3ncc(C#N)cc3F)CC2)c(=O)[nH]c2ccc(F)c(C#N)c12 (single isomer, unassigned) [compound 2523] | 0.74
40 | Cc1nc(C#N)cnc1[C@@H](C)NC(=O)C1(c2cc3c(F)c(F)ccc3[nH]c2=O)CC1 (single isomer, unassigned) [compound 4825] | 100.00

Same assay, conditions: porcine ventricle myofibrils; Y75 value

Row | Structure (SMILES) | Ventricular EC25 [µM]
41 | Cc1ccccc1[C@H](C)NC(=O)Cc1c(C)c2c(C)nccc2[nH]c1=O (single isomer, unassigned) [compound 327] | 9.24
42 | Cc1nccc2[nH]c(=O)c(CC(=O)N[C@H](C)c3ccncc3)c(C)c12 (single isomer, unassigned) [compound 333] | 100.00
43 | Cc1nccc2[nH]c(=O)c(CC(=O)N[C@H](C)c3ccc(O)cc3)c(C)c12 (single isomer, unassigned) [compound 328] | 100.00
44 | Cc1c(CC(=O)N[C@H](C)c2ncc(F)cc2F)c(=O)[nH]c2ccnc(C(F)(F)F)c12 (single isomer, unassigned) [compound 265] | 100.00
45 | Cc1nccc2[nH]c(=O)c(CC(=O)N[C@H](C)c3ccccc3O)c(C)c12 (single isomer, unassigned) [compound 320] | 100.00
46 | Cc1nccc2[nH]c(=O)c([C@H](C)C(=O)N[C@@H](C)c3ccc(C#N)cc3F)c(C)c12 (single isomer, unassigned) [compound 196] | 4.23
47 | Cc1c(CC(=O)N[C@@H](CO)c2ccc(F)cc2F)c(=O)[nH]c2ccc(C#N)nc12 [compound 211] | 53.99
48 | Cc1c(CC(=O)N[C@H](CO)c2ncc(F)cc2F)c(=O)[nH]c2ccc(C#N)nc12 [compound 259] | 100.00
49 | C[C@H](NC(=O)[C@H](C)c1c(C(F)(F)F)c2cnccc2[nH]c1=O)c1ccc(F)cc1F (single isomer, unassigned) [compound 427] | 22.60
50 | Cc1c(CC(=O)N[C@@H](C)c2ccc(F)cc2F)c(=O)[nH]c2ccc(OCC(F)(F)F)nc12 [compound 400] | 100.00
51 | Cc1c(CC(=O)N[C@H](C)c2ccc(C#N)cn2)c(=O)[nH]c2ccnc(C#N)c12 [compound 157] | 26.29
52 | C[C@H](NC(=O)[C@@H](C)c1c(C(F)(F)F)c2cnccc2[nH]c1=O)c1ccc(F)cc1F (single isomer, unassigned) [compound 426] | 66.84
53 | Cc1nccc2[nH]c(=O)c(CC(=O)Nc3c[nH]c4cc(F)cc(F)c34)c(C)c12 [compound 228] | 100.00
54 | C[C@H](NC(=O)[C@H](C)c1cc2nc(C#N)ccc2[nH]c1=O)c1ccc(F)cc1F (single isomer, unassigned) [compound 257] | 100.00
55 | C[C@H](NC(=O)Cc1c(C2CC2)c2cnccc2[nH]c1=O)c1ccc(C#N)cn1 [compound 141] | 100.00

Same assay, conditions: ‡ Y125 value, not a Y75 value (125% activity relative to no compound); porcine ventricle myofibrils

Row | Structure (SMILES) | Ventricular EC25
56 | Cc1c(C2(C(=O)N[C@@H](C)c3cc(C#N)ccn3)CC2)c(=O)[nH]c2ccc(F)cc12 (single isomer, unassigned) [compound 2578] | 100.00‡ μM
57 | C[C@H](NC(=O)C1(c2cc3c(F)c(F)ccc3[nH]c2=O)CC1)c1cc(C#N)ccn1 (single isomer, unassigned) [compound 2584] | 100.00‡ μM
